One block for each molecule: values may come before it. Where a SMILES comes first, the peptide text is derived from it. [ ]: non-standard residue; d: D form. The star is where a group is joined. Benzoyl(4-OPh) = O=C(c1ccc(Oc2ccccc2)cc1)*; Lys(Et2) = CCN(CC)CCCC[C@H](N)C(=O)O; d(aIle) = CC[C@H](C)[C@@H](N)C(=O)O; Gly(cPent) = N[C@H](C(=O)O)C1CCCC1; NH(propargyl) = C#CCN*
What was measured:
[1] = molecular target: T1, Bromodomain-containing protein 9 (Homo sapiens, UniProt Q9H8M2); test: Selectivity interaction (BROMOscan (Eurofins)) EUB0002282a BRD9; design: recommended concentration 1 uM
T1 sequence (Q9H8M2 whole entry): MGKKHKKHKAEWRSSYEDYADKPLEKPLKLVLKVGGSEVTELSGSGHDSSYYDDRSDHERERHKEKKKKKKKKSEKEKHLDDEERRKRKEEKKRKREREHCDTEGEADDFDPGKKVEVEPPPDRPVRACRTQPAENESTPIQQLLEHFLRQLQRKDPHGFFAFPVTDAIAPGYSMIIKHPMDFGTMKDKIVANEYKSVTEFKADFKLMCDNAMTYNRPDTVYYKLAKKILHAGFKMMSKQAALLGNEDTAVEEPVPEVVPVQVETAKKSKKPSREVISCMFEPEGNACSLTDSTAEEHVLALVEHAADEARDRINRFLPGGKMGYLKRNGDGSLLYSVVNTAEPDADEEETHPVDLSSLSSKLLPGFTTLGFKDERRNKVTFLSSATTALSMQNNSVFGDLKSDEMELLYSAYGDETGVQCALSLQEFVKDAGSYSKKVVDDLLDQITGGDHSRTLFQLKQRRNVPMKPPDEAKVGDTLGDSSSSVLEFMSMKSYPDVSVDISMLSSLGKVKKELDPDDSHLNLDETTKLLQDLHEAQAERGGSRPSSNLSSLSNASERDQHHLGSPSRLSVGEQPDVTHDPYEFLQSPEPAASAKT

[2] = molecular target: Bromodomain adjacent to zinc finger domain protein 2A (Homo sapiens, UniProt Q9UIF9); test: Selectivity interaction (BROMOscan (Eurofins)) EUB0002282a BAZ2A; design: recommended concentration 1 uM
[3] = molecular target: T2, Histone acetyltransferase p300 (Homo sapiens, UniProt Q09472); test: Selectivity interaction (BROMOscan (Eurofins)) EUB0002282a EP300; design: recommended concentration 1 uM
[4] = molecular target: Bromodomain adjacent to zinc finger domain protein 2B (Homo sapiens, UniProt Q9UIF8); test: Selectivity interaction (BROMOscan (Eurofins)) EUB0002282a BAZ2B; design: recommended concentration 1 uM
[5] = molecular target: Transcription initiation factor TFIID subunit 1 (Homo sapiens, UniProt P21675); test: Selectivity interaction (BROMOscan (Eurofins)) EUB0002282a TAF1; design: recommended concentration 1 uM
[6] = molecular target: Bromodomain testis-specific protein (Homo sapiens, UniProt Q58F21); test: Selectivity interaction (BROMOscan (Eurofins)) EUB0002282a BRDT; design: recommended concentration 1 uM
Peregrin = Peregrin (Homo sapiens, UniProt P55201); test: Selectivity interaction (BROMOscan (Eurofins)) EUB0002282a BRPF1; design: recommended concentration 1 uM
[7] = molecular target: Chromatin remodeling regulator CECR2 (Homo sapiens, UniProt Q9BXF3); test: Selectivity interaction (BROMOscan (Eurofins)) EUB0002282a CECR2; design: recommended concentration 1 uM
CREB-binding protein = CREB-binding protein (Homo sapiens, UniProt Q92793); test: Selectivity interaction (BROMOscan (Eurofins)) EUB0002282a CREBBP; design: recommended concentration 1 uM
[8] = molecular target: T3, Delta-type opioid receptor (Homo sapiens, UniProt P41143); test: (§1) Selectivity interaction (Panel of neurotransmitter receptors, receptors, ion channels/regulatory sites) EUB0002781aCl OPRD1; design: recommended concentration 1 uM
Mu-type opioid receptor [9] = molecular target: T4, Mu-type opioid receptor (Homo sapiens, UniProt P35372); test: (§2) Selectivity interaction (Panel of neurotransmitter receptors, receptors, ion channels/regulatory sites) EUB0002781aCl OPRM1; design: recommended concentration 1 uM
[10] = molecular target: T3, Delta-type opioid receptor; test: as §1; design: recommended concentration 1 uM; remark: listed apart in the source
Mu-type opioid receptor [11] = molecular target: T4, Mu-type opioid receptor; test: as §2; design: recommended concentration 1 uM; remark: listed apart in the source
[12] = molecular target: Kappa-type opioid receptor (Homo sapiens, UniProt P41145); test: Selectivity interaction (Panel of neurotransmitter receptors, receptors, ion channels/regulatory sites) EUB0002781aCl OPRK1; design: recommended concentration 1 uM
[13] = molecular target: Voltage-dependent L-type calcium channel subunit alpha-1S (Homo sapiens) (UniProt Q13698); test: Selectivity interaction (Panel of neurotransmitter receptors, receptors, ion channels/regulatory sites) EUB0002781aCl CACNA1S; design: recommended concentration 1 uM; settings: at 10 µM
[14] = molecular target: Chromobox protein homolog 7 (Homo sapiens, UniProt O95931); test: Selectivity interaction (Fluorescence polarisation assay (chromodomain family)) EUB0002326a CBX7; design: recommended concentration 1 uM
[15] = molecular target: T5, Chromobox protein homolog 2 (Homo sapiens, UniProt Q14781); test: (§3) Selectivity interaction (Fluorescence polarisation assay (chromodomain family)) EUB0002326a CBX2; design: recommended concentration 1 uM
T5 sequence (Q14781 whole entry): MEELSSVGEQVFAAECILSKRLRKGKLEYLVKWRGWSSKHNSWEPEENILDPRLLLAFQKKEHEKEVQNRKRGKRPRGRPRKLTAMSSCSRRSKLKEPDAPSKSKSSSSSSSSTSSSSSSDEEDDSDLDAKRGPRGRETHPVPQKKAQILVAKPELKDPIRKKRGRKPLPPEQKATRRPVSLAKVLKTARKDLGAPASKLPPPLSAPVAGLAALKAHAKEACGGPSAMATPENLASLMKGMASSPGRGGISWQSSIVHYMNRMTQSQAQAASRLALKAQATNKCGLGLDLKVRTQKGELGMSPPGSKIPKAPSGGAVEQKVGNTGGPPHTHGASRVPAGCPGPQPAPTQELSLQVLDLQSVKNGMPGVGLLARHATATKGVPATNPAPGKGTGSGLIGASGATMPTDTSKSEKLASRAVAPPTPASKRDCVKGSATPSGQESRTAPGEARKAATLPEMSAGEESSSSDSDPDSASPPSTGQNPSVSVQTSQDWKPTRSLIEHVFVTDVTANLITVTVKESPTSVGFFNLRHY

[16] = molecular target: T5, Chromobox protein homolog 2; test: as §3; design: recommended concentration 1 uM; remark: listed apart in the source
[17] = molecular target: 5-hydroxytryptamine receptor 1B (Homo sapiens) (UniProt P28222); test: (§4) Selectivity interaction (SafetyScreen (Eurofins)) EUB0002332a HTR1B; design: recommended concentration 1 uM; settings: at 10 µM
[18] = molecular target: Sodium-dependent noradrenaline transporter (Homo sapiens) (UniProt P23975); test: Selectivity interaction (SafetyScreen (Eurofins)) EUB0002332a SLC6A2; design: recommended concentration 1 uM; settings: at 10 µM
[19] = molecular target: Sodium-dependent dopamine transporter (Homo sapiens) (UniProt Q01959); test: Selectivity interaction (SafetyScreen (Eurofins)) EUB0002332a SLC6A3; design: recommended concentration 1 uM; settings: at 10 µM
[20] = molecular target: 5-hydroxytryptamine receptor 1B (Homo sapiens) (UniProt P28222); test: as §4; design: recommended concentration 1 uM; settings: at 10 µM; remark: listed apart in the source
[21] = molecular target: Voltage-gated inwardly rectifying potassium channel KCNH2 (Homo sapiens, UniProt Q12809); test: Selectivity interaction (SafetyScreen (Eurofins)) EUB0002332a KCNH2; design: recommended concentration 1 uM; settings: at 10 µM
[22] = molecular target: Oxidized purine nucleoside triphosphate hydrolase (Homo sapiens) (UniProt P36639); test: Selectivity interaction (Nudix + Nucleotide phosphohydrolase panel (enzymatic assay)) EUB0002332a NUDT1; design: recommended concentration 1 uM; settings: at 100 µM
[23] = molecular target: cGMP-inhibited 3',5'-cyclic phosphodiesterase 3B (Homo sapiens, UniProt Q13370); test: Selectivity interaction (Enzymatic assay) EUB0002598a PDE3B; design: recommended concentration 1 uM
Histone deacetylase 8 [24] = molecular target: T6, Histone deacetylase 8 (Homo sapiens, UniProt Q9BY41)
T6 sequence (Q9BY41 whole entry): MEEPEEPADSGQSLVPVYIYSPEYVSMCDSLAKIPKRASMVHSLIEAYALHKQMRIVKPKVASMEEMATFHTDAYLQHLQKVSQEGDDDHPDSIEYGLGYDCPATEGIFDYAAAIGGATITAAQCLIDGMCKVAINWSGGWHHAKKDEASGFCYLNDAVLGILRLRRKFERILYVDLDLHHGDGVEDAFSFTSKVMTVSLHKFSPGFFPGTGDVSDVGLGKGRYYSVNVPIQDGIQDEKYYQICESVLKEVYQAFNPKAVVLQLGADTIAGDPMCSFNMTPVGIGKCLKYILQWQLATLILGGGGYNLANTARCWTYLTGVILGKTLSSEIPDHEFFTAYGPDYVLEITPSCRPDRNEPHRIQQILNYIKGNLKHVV

Histone deacetylase 8 [25] = molecular target: T6, Histone deacetylase 8; remark: listed apart in the source
Histone deacetylase 8 [26] = molecular target: T6, Histone deacetylase 8; remark: listed apart in the source
[27] = molecular target: Muscarinic acetylcholine receptor M1 (Homo sapiens, UniProt P11229); test: Selectivity interaction (Membrane binding assay) EUB0002488aCl CHRM1; design: recommended concentration 1 uM
Cathepsin S = Cathepsin S (Homo sapiens, UniProt P25774); test: Selectivity interaction (Enzymatic assay) EUB0002529a CTSS; design: recommended concentration 1 uM
[28] = molecular target: T2, Histone acetyltransferase p300; test: (§5) Selectivity interaction (BROMOscan (DiscoverX)) EUB0002298a EP300; design: recommended concentration 1 uM
[29] = molecular target: T2, Histone acetyltransferase p300; test: as §5; design: recommended concentration 1 uM; remark: listed apart in the source
[30] = molecular target: T2, Histone acetyltransferase p300; test: as §5; design: recommended concentration 1 uM; remark: listed apart in the source
P2X purinoceptor 3 = P2X purinoceptor 3 (Homo sapiens, UniProt P56373); test: Selectivity interaction (Patch-clamp recording assay) EUB0002673aCl P2RX3; design: recommended concentration 1 uM
Chain of P2X purinoceptor 3 (P56373 whole entry): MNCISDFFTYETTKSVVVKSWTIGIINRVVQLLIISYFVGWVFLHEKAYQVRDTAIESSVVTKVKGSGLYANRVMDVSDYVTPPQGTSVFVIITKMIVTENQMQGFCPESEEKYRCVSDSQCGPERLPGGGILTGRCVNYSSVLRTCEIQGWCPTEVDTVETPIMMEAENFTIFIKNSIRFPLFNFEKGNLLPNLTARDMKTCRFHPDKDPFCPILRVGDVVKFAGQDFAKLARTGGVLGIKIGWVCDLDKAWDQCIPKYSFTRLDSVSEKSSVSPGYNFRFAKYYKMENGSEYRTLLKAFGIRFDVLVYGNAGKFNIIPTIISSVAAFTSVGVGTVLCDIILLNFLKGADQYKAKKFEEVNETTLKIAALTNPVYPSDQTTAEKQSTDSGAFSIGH

T2 sequence (Q09472 whole entry, the tested form may be a part): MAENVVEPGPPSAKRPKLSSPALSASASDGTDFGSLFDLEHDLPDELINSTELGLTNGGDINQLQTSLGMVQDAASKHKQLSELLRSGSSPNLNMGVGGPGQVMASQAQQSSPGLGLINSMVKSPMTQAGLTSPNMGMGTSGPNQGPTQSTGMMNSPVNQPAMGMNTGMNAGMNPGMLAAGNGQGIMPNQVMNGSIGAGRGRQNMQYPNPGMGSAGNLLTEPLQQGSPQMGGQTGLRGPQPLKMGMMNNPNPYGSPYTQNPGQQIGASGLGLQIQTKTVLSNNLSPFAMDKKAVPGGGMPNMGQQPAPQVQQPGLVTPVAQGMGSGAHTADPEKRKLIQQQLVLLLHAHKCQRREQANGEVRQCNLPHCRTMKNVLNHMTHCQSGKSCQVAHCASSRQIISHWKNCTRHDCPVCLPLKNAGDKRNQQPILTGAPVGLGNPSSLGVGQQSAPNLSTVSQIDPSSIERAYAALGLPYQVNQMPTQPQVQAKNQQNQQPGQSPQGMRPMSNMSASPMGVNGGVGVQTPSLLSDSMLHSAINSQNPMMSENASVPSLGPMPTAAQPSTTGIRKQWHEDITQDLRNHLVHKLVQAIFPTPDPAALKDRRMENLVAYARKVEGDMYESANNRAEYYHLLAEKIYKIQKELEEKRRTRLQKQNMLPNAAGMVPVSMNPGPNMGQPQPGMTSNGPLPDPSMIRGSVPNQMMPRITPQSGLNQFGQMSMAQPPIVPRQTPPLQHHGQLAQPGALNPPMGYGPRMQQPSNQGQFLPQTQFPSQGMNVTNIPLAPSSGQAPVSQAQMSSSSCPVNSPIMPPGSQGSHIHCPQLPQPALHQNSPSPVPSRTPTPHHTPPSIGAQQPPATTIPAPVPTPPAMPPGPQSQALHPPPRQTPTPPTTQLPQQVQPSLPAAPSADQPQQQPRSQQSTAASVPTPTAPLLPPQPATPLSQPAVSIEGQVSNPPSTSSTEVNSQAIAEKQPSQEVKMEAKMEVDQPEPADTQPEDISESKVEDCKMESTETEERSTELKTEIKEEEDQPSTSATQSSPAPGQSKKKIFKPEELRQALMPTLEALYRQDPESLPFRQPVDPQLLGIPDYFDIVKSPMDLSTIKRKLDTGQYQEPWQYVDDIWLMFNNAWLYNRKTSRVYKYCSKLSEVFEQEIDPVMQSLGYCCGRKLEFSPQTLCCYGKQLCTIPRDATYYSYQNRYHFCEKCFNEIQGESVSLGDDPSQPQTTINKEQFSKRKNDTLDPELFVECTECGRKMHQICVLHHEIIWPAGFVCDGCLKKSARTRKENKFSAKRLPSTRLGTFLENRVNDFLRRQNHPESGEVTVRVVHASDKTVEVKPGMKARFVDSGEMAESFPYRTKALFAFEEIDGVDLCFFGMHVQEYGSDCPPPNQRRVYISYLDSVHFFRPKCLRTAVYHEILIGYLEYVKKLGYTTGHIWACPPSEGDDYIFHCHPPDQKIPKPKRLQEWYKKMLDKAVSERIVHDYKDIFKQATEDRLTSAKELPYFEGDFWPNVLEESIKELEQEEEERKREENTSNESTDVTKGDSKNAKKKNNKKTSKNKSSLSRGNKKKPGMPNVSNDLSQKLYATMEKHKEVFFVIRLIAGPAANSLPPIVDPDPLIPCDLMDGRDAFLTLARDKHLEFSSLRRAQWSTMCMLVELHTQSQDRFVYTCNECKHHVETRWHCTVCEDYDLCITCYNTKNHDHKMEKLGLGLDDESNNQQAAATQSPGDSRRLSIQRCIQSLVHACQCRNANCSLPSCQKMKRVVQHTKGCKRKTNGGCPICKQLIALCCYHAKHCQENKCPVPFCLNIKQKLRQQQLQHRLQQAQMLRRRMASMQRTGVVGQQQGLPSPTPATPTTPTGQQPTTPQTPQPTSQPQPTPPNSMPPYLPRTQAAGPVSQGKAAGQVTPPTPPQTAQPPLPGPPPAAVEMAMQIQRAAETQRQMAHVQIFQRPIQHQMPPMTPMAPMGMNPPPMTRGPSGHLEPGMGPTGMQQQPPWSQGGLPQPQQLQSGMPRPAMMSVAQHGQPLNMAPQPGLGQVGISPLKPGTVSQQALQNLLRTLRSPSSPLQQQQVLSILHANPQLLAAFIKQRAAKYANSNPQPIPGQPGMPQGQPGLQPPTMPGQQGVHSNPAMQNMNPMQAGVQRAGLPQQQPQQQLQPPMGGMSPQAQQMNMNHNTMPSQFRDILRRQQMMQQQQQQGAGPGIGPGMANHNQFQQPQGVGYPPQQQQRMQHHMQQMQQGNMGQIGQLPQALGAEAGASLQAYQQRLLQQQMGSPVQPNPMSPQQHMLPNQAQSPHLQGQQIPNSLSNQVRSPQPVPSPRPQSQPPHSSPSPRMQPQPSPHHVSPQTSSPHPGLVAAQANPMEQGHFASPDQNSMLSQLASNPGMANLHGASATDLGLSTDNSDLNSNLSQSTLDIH
Chain of 5-hydroxytryptamine receptor 1B (Homo sapiens) (P28222 whole entry): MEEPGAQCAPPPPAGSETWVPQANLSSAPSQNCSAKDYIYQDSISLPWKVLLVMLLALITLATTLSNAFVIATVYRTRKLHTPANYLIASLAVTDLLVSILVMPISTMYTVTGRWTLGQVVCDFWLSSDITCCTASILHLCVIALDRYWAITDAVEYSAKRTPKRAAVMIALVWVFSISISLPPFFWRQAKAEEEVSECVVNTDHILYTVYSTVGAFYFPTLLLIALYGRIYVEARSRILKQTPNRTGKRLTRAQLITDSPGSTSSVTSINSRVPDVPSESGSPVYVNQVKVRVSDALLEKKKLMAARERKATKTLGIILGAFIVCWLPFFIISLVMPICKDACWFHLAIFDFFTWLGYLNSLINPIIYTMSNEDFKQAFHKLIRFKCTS
T3 sequence (P41143 whole entry): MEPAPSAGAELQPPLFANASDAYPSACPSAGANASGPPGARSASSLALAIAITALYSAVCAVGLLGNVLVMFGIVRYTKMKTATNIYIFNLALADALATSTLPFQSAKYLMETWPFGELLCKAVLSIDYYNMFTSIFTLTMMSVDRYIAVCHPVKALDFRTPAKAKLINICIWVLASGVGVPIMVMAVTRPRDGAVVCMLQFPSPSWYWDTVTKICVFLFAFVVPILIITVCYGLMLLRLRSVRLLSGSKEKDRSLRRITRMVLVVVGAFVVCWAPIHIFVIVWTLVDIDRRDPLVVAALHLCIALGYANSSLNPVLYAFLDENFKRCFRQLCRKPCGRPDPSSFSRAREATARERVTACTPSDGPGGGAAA
T4 sequence (P35372 whole entry): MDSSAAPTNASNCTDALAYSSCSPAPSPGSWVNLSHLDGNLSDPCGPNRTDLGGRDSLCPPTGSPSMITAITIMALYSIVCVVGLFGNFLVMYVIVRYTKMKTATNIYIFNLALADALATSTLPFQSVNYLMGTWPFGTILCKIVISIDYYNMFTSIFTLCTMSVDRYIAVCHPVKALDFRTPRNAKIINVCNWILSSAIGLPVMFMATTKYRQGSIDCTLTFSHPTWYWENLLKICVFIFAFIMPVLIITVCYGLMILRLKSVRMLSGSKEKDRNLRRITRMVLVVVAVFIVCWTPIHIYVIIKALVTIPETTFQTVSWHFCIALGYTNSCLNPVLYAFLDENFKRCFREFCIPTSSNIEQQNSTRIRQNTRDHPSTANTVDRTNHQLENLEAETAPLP
Chain of Chromobox protein homolog 7 (O95931 whole entry): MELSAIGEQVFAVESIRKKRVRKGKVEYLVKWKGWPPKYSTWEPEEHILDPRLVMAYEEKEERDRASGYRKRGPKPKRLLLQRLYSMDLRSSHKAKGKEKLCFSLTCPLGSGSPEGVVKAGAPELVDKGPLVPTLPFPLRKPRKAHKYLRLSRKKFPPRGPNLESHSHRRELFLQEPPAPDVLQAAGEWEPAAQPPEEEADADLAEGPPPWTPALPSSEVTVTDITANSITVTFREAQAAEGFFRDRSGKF
Chain of Kappa-type opioid receptor (P41145 whole entry): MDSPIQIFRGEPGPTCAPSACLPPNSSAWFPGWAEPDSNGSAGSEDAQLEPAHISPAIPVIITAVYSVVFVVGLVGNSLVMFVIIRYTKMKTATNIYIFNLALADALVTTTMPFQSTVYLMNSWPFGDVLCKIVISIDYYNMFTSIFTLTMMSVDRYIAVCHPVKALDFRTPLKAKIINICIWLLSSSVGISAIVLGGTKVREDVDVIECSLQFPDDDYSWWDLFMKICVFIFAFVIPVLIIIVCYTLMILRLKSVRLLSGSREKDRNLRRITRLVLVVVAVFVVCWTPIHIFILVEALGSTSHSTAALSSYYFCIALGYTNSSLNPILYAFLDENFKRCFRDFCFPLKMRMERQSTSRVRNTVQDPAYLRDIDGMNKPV
Chain of Cathepsin S (P25774 whole entry): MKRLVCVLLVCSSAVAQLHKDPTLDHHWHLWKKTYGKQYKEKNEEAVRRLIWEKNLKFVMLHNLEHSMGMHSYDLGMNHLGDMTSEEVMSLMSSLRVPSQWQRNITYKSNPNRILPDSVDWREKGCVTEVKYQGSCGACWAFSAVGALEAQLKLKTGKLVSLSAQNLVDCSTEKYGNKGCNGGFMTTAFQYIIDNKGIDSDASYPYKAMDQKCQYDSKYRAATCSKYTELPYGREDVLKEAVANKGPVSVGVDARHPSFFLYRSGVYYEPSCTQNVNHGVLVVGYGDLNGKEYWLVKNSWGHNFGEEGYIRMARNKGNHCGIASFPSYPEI

Kd [1]: 64 nM
Kd [2]: 140 nM
Kd [3]: 25 nM
Kd [4]: 190 nM
Kd [5]: 110 nM
Kd [6]: 25 nM
Kd (Peregrin): 100 nM
Kd [7]: 38 nM
Kd (CREB-binding protein): 23 nM
Structure (SMILES): Cc1cc(-c2ccc3nc(C4CCOCC4)n(CCOC(F)(F)F)c3c2)cn(C)c1=O

Ki [8]: 238 nM
Ki (Mu-type opioid receptor [9]): 60 nM
Ki [10]: 213 nM
Ki (Mu-type opioid receptor [11]): 213 nM
Ki [12]: 213 nM
inhibition [13]: 62%
Structure (SMILES): N=C(N)NC(=O)c1cnn(-c2cccc3ncccc23)c1C1CC1

Structure (SMILES): C#CCNC(=O)[C@H](CO)NC(=O)[C@H](CCCCN(CC)CC)NC(=O)[C@H](NC(=O)[C@@H](NC(=O)c1ccc(Oc2ccccc2)cc1)C1CCCC1)[C@@H](C)CC ({Benzoyl(4-OPh)}-[Gly(cPent)][d(aIle)][Lys(Et2)]S-{NH(propargyl)})
Kd [14]: > 16000 nM
Kd [15]: 4600 nM
Kd [16]: 4600 nM

Enzyme activity [22]: < 20%
Structure (SMILES): Cn1c(=O)c2c(nc(N3CCNCC3)n2Cc2nnc(-c3ccc(Cl)c(Cl)c3)o2)n(C)c1=O
Inhibition of control [17]: > 50%
Inhibition of control [18]: > 50%
Inhibition of control [19]: 50%
Inhibition of control [20]: > 50%
Inhibition of control [21]: > 50%

IC50 [23]: 2700 nM
Structure (SMILES): CC(C)C(=O)c1c(C(C)C)nn2ccccc12 [IBUDILAST]

IC50 (Histone deacetylase 8 [24]): 877 nM
IC50 (Histone deacetylase 8 [25]): 877 nM
IC50 (Histone deacetylase 8 [26]): 877 nM
Structure (SMILES): CN(C)Cc1ccc(S(=O)(=O)n2ccc(/C=C/C(=O)NO)c2)cc1

Structure (SMILES): CN1[C@@H]2CC[C@H]1C[C@@H](OC(c1ccc(F)cc1)c1ccc(F)cc1)C2
Ki [27]: 11.6 nM

Ki (Cathepsin S): 850 nM
Structure (SMILES): Cn1nc(C(C)(C)C)cc1C(=O)NC(Cc1cccc(Cl)c1)C(=O)NCC#N (centres undefined)

IC50 [28]: 363 nM
IC50 [29]: 363 nM
IC50 [30]: 363 nM
Structure (SMILES): CCCOc1ccc(CCc2nc3cc(-c4c(C)noc4C)ccc3n2CCN2CCOCC2)cc1

IC50 (P2X purinoceptor 3): 870 nM
Structure (SMILES): CCCCOc1c(OC)cc(C(=O)NCC2(N(C)C)CCOCC2)cc1OC

— ChEMBL document CHEMBL5715260, “Selectivity Literature for EUbOPEN Chemogenomic Library” (2024)
